Results as given in PMC4908816 (Molecular microbiology, 2016).
Several values for one entry are separate records, joined by “and”; a condition that tells them apart may be missing. Equal values may be shown once.

Assays:
[1] = tested on: R388-mediated conjugation; settings: cited from earlier work; for inhibition of bacterial conjugation: ref Getino et al., 2015; for inhibition of bacterial conjugation in vivo assays: ref Fernández-Lopez et al., 2005
[2] = tested on: R388 transfer (bacterial conjugation); experiment: High-throughput conjugation assay; assay type: cell-based; settings: 500 μM compound (Fig. 3A), E. coli DH5α donor, BL21(DE3) recipient
[3] = target: T1, TrwD (Escherichia coli, UniProt O50338); experiment: ATP hydrolysis assay; assay type: biochemical, conjugative plasmid R388; settings: for K0.5 ATP of TrwD in the presence of fatty acid / mechanism of inhibition of TrwD ATP hydrolysis: 21 μM linoleic acid or 30 μM 2-HDA; for K0.5 ATP of TrwD in the presence of fatty acid: 44 μM in the absence of fatty acids; for mechanism of inhibition of TrwD ATP hydrolysis: increasing ATP; for effect on Vmax of TrwD ATP hydrolysis: compound at its Ki[app] (21 μM linoleic acid, 30 μM 2-HDA); for inhibition (reduction) of TrwD ATPase activity: 50 μM fatty acid
T1 sequence (O50338 1-358): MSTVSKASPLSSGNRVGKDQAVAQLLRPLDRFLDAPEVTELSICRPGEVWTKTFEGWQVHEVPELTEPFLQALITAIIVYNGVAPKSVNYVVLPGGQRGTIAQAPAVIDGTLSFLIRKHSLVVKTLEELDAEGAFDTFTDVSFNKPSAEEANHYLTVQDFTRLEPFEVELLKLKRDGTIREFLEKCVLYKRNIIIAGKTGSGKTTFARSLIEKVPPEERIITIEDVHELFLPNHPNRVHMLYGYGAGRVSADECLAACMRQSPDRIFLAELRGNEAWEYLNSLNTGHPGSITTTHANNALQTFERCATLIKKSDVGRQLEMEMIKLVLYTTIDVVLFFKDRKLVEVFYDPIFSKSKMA

[4] = target: T1, TrwD; experiment: Partial proteolysis of TrwD by papain; set-up: species or system conjugative plasmid R388; settings: 1:10 to 1:100 TrwD:2-HDA or 1:100 TrwD:palmitic acid molar ratio; 90 min, 25 °C
[5] = tested on: TrwC; experiment: ATP hydrolysis assay; assay type: biochemical, conjugative plasmid R388; settings: 50 μM linoleic acid; ATPase 2 μM
[6] = target: TrwK (Escherichia coli, UniProt O50330); experiment: ATP hydrolysis assay; assay type: biochemical, conjugative plasmid R388; settings: 50 μM linoleic acid; ATPase 2 μM
[7] = target: TrwB (Escherichia coli, UniProt Q04230); experiment: ATP hydrolysis assay; assay type: biochemical, conjugative plasmid R388; settings: 50 μM linoleic acid; ATPase 2 μM

| Compound | inhibition of bacterial conjugation [1] | Ki [3] [µM] | inhibition of bacterial conjugation in vivo assays [1] | inhibition (reduction) of TrwD ATPase activity ([3]; TrwD 2 μM) | further results |
| --- | --- | --- | --- | --- | --- |
| CCCCCCCCCC#CCCC#CC(=O)O [2,6-HDA, 2,6 hexadecadiynoic acid] | more effective in inhibiting bacterial conjugation | 43.8 ± 2.8 |  |  | inhibition of bacterial conjugation [2]: efficient conjugation inhibitors |
| CCCCCCCCCCCCCC#CC(=O)O [2-HDA, 2-hexadecynoic acid] | more effective in inhibiting bacterial conjugation | 29.7 ± 2.1 |  |  | susceptibility of TrwD to papain digestion [4]: high susceptibility to papain degradation; K0.5 ATP of TrwD in the presence of fatty acid ([3]; TrwD 2 μM): 66 µM; mechanism of inhibition of TrwD ATP hydrolysis [3]: non-competitive; Kd ADP of TrwD in the presence of fatty acid ([3]; 30 μM 2-HDA, TrwD 2 μM, control without 2-HDA 45.1 ± 4.1 μM): 51 µM and 51.7 ± 9.8 µM; effect on Vmax of TrwD ATP hydrolysis [3]: reduced by half |
| CCCCCCCCCCCCCCCC#CC(=O)O [2-ODA, 2-octadecynoic acid] | more effective in inhibiting bacterial conjugation | 29.8 ± 4.1 |  |  | inhibition of bacterial conjugation [2]: efficient conjugation inhibitors |
| CCCCCCCCCCCC(=O)O [Lauric acid] |  |  | unable to inhibit significantly | no inhibition was observed |  |
| CCCCCCCCCCCCCCCC(=O)O [Palmitic acid] |  |  | unable to inhibit significantly | no inhibition was observed | susceptibility of TrwD to papain digestion [4]: did not affect the susceptibility |
| CCCCC/C=C\C/C=C\CCCCCCCC(=O)O [linoleic acid] |  | 20.9 ± 1.6 | effective inhibitors of bacterial conjugation |  | K0.5 ATP of TrwD in the presence of fatty acid ([3]; TrwD 2 μM): 44 µM; mechanism of inhibition of TrwD ATP hydrolysis [3]: non-competitive; effect on Vmax of TrwD ATP hydrolysis [3]: reduced by half; effect on TrwC ATPase activity [5]: no significant effect; effect on TrwK ATPase activity [6]: no significant effect; effect on TrwB ATPase activity [7]: no significant effect |
| CCCCCCCC/C=C\CCCCCCCC(=O)O [oleic acid] |  |  | effective inhibitors of bacterial conjugation | more than 90% |  |
